Tests used:
[1] = test system: complex regional pain syndrome (CRPS); assay: rat tibia fracture model of complex regional pain syndrome, dosing from day of fracture; format: in vivo
Protocol: The effect of orally administered zoledronic acid was examined in the rat tibia fracture model of complex regional pain syndrome (CRPS). CRPS was induced in the rats by fracturing the right distal tibias of the animals and casting the fractured hindpaws for 4 weeks, as described in Guo T Z et al. (Pain. 2004; 108: 95-107).
Animals were orally administered either vehicle (control) or zoledronic acid, in a dosage of 18 mg/m^2/day (3 mg/kg/day) for 28 days, starting on the day of fracture and casting. Drug was dissolved in distilled water and administered by gavage. Animals were fasted for 4 hours before and 2 hours after dosing. At the end of the 28-day period, casts were removed, and on the following day, the rats were tested for hindpaw pain, edema, and warmth.
Pain was assessed by measuring hyperalgesia, and weight bearing.
To measure hyperalgesia, an up-down von Frey testing paradigm was used. Rats were placed in a clear plastic cylinder (20 cm in diameter) with a wire mesh bottom and allowed to acclimate for 15 minutes. The paw was tested with one of a series of eight von Frey hairs ranging in stiffness from 0.41 g to 15.14 g. The von Frey hair was applied against the hindpaw plantar skin at approximately midsole, taking care to avoid the tori pads. The fiber was pushed until it slightly bowed and then it was jiggled in that position for 6 seconds. Stimuli were presented at an interval of several seconds. Hindpaw withdrawal from the fiber was considered a positive response. […]
An incapacitance device (IITC Inc. Life Science, Woodland, CA, USA) was used to measure hindpaw weight bearing, a postural effect of pain. […] Eight readings (excluding the highest and lowest ones) were averaged to calculate the bilateral hindpaw weight-bearing values. Weight bearing data were analyzed as the ratio between right (fracture) and left hindpaw weight bearing values ((2R/(R+L))×100%). […]
The temperature of the hindpaw was measured using a fine wire thermocouple (Omega, Stanford, CT, USA) applied to the paw skin. […]

[2] = in vivo; conditions: beagle, dog, po, 150 mg
Protocol: Tablets were manufactured containing either pure zoledronic acid or the disodium salt of zoledronic acid (disodium zoledronate tetrahydrate). Both types of tablets contained 50 mg of zoledronic acid equivalent per tablet. Identical excipients were used in both types of tablets, with amounts adjusted to account for the difference in molecular weights between the acid and the disodium salt.
Beagle dogs were orally administered tablets containing 150 mg zoledronic acid equivalent either in the form of disodium zoledronate (Group 1) or pure zoledronic acid (Group 2). Each animal was given three 50 mg equivalent tablets (150 mg total), which were administered together. The animal's oral cavity was wetted with water before placing the tablets on the back of the animal's tongue. Animals were fasted before and after dosing. Animals were 6 to 9 months of age and weighed 6 to 10 kg on the day of dosing. There were three dogs per group.
Serial blood samples were collected from each animal by venipuncture of the jugular vein at various points after dosing for measurement of plasma concentrations of zoledronic acid. Blood samples were collected into chilled tubes containing K2EDTA as the anticoagulant. Samples were then centrifuged at approximately 3000 rpm at +4° C. for 10 minutes for plasma derivation. Plasma concentrations of zoledronic acid were measured using an LC/MS/MS method.

[3] = test system: health-related quality of life (RAND-36); assay: randomized placebo-controlled trial in chronic low back pain with Modic changes, RAND-36 quality of life; format: in vivo, human; conditions: for RAND-36 Mental component, Unadjusted analyses Difference (95% CI) / RAND-36 Physical component, Unadjusted analyses Difference (95% CI) / Total RAND-36, Unadjusted analyses Difference (95% CI) / RAND-36 Mental component, Adjusted analyses Difference (95% CI) / RAND-36 Physical component, Adjusted analyses Difference (95% CI) / Total RAND-36, Adjusted analyses Difference (95% CI): ZA versus placebo; for RAND-36 Mental component, Adjusted analyses Difference (95% CI) / RAND-36 Physical component, Adjusted analyses Difference (95% CI) / Total RAND-36, Adjusted analyses Difference (95% CI): adjusted for baseline; for RAND-36 Mental component, Mean (SD) change / RAND-36 Mental component, Mean (SD) original values / RAND-36 Physical component, Mean (SD) change / RAND-36 Physical component, Mean (SD) original values / Total RAND-36, Mean (SD) change / Total RAND-36, Mean (SD) original values: single 5 mg IV infusion
Protocol: A study was performed to evaluate the efficacy of a single intravenous infusion of 5 mg ZA in comparison with intravenous placebo infusion among patients with chronic low back pain (LBP) and Modic changes on MRI. This study was a double-blinded, randomized, placebo-controlled clinical trial in patients with low back pain (LBP). Patients were included in the study if they had low back symptoms for at least three months, an LBP of at least six (6) on a 10-cm Visual Analog Scale (VAS) or an Oswestry Disability Index (ODI) of at least 30%, and an M1, mixed M1/2 or M2 type change on MRI performed within six months at most prior to enrolment.
After confirmation of eligibility patients were randomized to receive a single intravenous infusion of 5 mg zoledronic acid (n=20) or 100 ml saline as placebo (n=20) over a 15-minute period. Information on use of the concomitant medication and hospital admissions were recorded. Blood samples were taken for the assessment of safety, inflammatory mediators and markers of bone turnover at baseline, one month and one year.
Clinical assessments were performed 14 days before enrolment (screening visit), and follow-up visits at one month and one year after the infusion. The primary outcome was the change in the intensity of LBP on VAS. Secondary outcomes included leg pain intensity, ODI, health-related quality of life assessed with RAND-36, patient-reported sick leaves and lumbar flexibility. These outcome measures were assessed at baseline and at each follow-up. Lumbar flexibility was evaluated using the fingers-to-floor and trunk side bending measures (in cm). The percentage of patients undergoing a 20% relative improvement, the proportion of patients reaching a VAS score of 40 or less in the primary outcome, and patient acceptable symptom state (PASS) were also assessed. Pain medication use was inquired about during the follow-up visits.

[4] = 18 mg/m^2/day oral for 28 days from fracture

O=P(O)(O)C(O)(Cn1ccnc1)P(=O)(O)O [zoledronic acid]
overall effect compared to vehicle treated animals ([1]; 18 mg/m^2/day (3 mg/kg/day) oral for 28 days from fracture): reversed pain, restored weight bearing, and prevented edema | hindlimb weight bearing [1, 4]: 86 % of normal | reversal of fracture induced pain (von Frey) as compared to vehicle [1, 4]: 77% | AUC(0-inf) [2]: 2220 ng·h/mL | RAND-36 Mental component, Unadjusted analyses Difference (95% CI) ([3]; 1 mo.): 2.0 (−2 to 6) | RAND-36 Physical component, Unadjusted analyses Difference (95% CI) ([3]; 1 mo.): 0.3 (−4 to 5) | Total RAND-36, Unadjusted analyses Difference (95% CI) ([3]; 1 mo.): 1.2 (−3 to 5) | RAND-36 Mental component, Adjusted analyses Difference (95% CI) ([3]; 1 mo.): 1.6 (−2 to 5) | RAND-36 Physical component, Adjusted analyses Difference (95% CI) ([3]; 1 mo.): 1.3 (−3 to 6) | Total RAND-36, Adjusted analyses Difference (95% CI) ([3]; 1 mo.): 1.3 (−3 to 5) | RAND-36 Mental component, Mean (SD) change ([3]; 1 mo.): 1.0 (6.1) | RAND-36 Mental component, Mean (SD) original values ([3]; 1 mo.): 50 (9) | RAND-36 Physical component, Mean (SD) change ([3]; 1 mo.): 0.1 (8.6) | RAND-36 Physical component, Mean (SD) original values ([3]; 1 mo.): 52 (9) | Total RAND-36, Mean (SD) change ([3]; 1 mo.): 0.6 (6.4) | Total RAND-36, Mean (SD) original values ([3]; 1 mo.): 51 (8) | RAND-36 Mental component, Unadjusted analyses Difference (95% CI) ([3]; 12 mos.): 3.5 (−2 to 9) | RAND-36 Physical component, Unadjusted analyses Difference (95% CI) ([3]; 12 mos.): 0.7 (−5 to 6) | Total RAND-36, Unadjusted analyses Difference (95% CI) ([3]; 12 mos.): 2.1 (−3 to 7) | RAND-36 Mental component, Adjusted analyses Difference (95% CI) ([3]; 12 mos.): 2.7 (−2 to 7) | RAND-36 Physical component, Adjusted analyses Difference (95% CI) ([3]; 12 mos.): 2.1 (−3 to 7) | Total RAND-36, Adjusted analyses Difference (95% CI) ([3]; 12 mos.): 2.2 (−2 to 7) | RAND-36 Mental component, Mean (SD) change ([3]; 12 mos.): 1.8 (9.0) | RAND-36 Mental component, Mean (SD) original values ([3]; 12 mos.): 51 (9) | RAND-36 Physical component, Mean (SD) change ([3]; 12 mos.): 0.3 (10) | RAND-36 Physical component, Mean (SD) original values ([3]; 12 mos.): 52 (8) | Total RAND-36, Mean (SD) change ([3]; 12 mos.): 1.0 (8.7) | Total RAND-36, Mean (SD) original values ([3]; 12 mos.): 51 (8)

Reference: patent US20240108641A1, “COMPOSITIONS FOR ORAL ADMINISTRATION OF ZOLEDRONIC ACID OR RELATED COMPOUNDS FOR TREATING DISEASE” (ANTECIP BIOVENTURES II LLC, priority 2012, published 2024)
